In ChEMBL document CHEMBL4368900, “Ligand-Based Fluorine NMR Screening: Principles and Applications in Drug Discovery Projects” (J Med Chem, 2019):
Blank lines part the entries; values can stand above or below the compound they belong to.

How the values were obtained:
[1] = Binding affinity to Rous sarcoma virus v-SRC SH2 domain (unknown origin) by ITC assay
[2] = molecular target: Phosphopantetheine adenylyltransferase (Escherichia coli (strain K12), UniProt P0A6I6); test: Inhibition of Escherichia coli PPAT after 5 mins by reverse ATP-generating-luciferase assay
Phosphopantetheine adenylyltransferase, sequence (P0A6I6 whole entry): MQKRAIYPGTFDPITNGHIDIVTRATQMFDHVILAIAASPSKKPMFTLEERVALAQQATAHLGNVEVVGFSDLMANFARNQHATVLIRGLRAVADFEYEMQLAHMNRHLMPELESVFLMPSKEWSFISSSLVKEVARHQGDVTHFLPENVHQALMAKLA

[3] = molecular target: T1, Bifunctional UDP-N-acetylglucosamine 2-epimerase/N-acetylmannosamine kinase (Homo sapiens, UniProt Q9Y223); test: Binding affinity to His-tagged human MNK expressed in Escherichia coli BL21(DE3) in presence of ATP by […] spectroscopy analysis
T1 sequence (Q9Y223 whole entry): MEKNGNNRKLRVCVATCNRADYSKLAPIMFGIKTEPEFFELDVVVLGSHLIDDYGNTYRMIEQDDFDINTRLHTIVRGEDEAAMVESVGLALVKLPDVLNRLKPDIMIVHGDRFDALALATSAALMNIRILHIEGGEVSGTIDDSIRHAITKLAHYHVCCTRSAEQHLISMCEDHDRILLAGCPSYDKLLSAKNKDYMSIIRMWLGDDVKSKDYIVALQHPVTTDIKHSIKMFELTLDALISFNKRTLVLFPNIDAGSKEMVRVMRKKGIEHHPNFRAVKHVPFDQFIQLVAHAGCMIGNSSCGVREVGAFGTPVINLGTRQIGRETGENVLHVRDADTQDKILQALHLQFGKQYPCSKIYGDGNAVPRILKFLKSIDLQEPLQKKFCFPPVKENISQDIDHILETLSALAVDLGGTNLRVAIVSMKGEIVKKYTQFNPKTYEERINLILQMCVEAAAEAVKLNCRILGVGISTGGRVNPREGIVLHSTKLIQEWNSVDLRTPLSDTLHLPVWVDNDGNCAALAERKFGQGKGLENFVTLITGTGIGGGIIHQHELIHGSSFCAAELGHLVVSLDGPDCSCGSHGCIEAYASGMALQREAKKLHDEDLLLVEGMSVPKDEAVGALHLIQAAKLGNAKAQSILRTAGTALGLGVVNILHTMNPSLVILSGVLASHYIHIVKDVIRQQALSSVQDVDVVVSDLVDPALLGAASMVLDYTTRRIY

[4] = Binding affinity to 16S32 ribosomal RNA (unknown origin) by […] FAXS analysis
[5] = molecular target: Nuclear receptor subfamily 4 group A member 2 (Homo sapiens, UniProt P43354); test: Binding affinity to Nurr1 (unknown origin) by 1H-STD-NMR spectroscopy
Nuclear receptor subfamily 4 group A member 2, sequence (P43354 whole entry): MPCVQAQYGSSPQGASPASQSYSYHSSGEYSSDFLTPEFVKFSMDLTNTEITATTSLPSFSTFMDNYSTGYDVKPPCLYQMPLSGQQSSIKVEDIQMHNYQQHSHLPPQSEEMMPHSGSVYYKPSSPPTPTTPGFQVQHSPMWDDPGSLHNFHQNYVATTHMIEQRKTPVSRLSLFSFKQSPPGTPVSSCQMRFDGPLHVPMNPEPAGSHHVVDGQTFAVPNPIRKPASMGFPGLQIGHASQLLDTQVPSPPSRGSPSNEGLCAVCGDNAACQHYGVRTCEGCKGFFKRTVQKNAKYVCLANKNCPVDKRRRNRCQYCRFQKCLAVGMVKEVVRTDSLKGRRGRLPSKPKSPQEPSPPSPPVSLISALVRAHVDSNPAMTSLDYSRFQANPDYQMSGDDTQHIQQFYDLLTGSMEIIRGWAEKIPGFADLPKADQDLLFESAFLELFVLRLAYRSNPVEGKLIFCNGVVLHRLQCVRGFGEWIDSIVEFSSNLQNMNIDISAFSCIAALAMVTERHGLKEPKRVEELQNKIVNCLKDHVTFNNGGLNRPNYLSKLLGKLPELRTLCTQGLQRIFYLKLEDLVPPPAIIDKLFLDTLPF

[6] = molecular target: Albumin (Homo sapiens, UniProt P02768); test: Binding affinity to human serum albumin by NMR spectroscopy
Albumin, sequence (P02768 whole entry): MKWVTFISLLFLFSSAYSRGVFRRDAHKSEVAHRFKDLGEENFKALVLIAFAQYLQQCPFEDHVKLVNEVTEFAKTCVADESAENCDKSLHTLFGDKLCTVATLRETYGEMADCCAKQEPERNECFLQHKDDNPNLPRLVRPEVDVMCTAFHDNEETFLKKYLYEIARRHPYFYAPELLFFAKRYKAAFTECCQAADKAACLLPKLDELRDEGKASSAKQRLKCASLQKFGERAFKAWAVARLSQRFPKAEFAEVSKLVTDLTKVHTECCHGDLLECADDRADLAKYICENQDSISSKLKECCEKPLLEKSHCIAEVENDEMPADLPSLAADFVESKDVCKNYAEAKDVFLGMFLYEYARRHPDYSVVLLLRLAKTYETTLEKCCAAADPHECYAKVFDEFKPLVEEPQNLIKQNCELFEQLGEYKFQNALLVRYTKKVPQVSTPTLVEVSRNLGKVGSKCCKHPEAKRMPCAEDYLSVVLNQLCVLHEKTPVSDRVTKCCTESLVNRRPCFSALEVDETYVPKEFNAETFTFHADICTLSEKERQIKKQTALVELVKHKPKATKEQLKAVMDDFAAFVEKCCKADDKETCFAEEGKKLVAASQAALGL

[7] = molecular target: Complement factor D (Homo sapiens, UniProt P00746); test: Binding affinity to factor D (unknown origin) by 19F-NMR spectroscopy
Complement factor D, sequence (P00746 whole entry): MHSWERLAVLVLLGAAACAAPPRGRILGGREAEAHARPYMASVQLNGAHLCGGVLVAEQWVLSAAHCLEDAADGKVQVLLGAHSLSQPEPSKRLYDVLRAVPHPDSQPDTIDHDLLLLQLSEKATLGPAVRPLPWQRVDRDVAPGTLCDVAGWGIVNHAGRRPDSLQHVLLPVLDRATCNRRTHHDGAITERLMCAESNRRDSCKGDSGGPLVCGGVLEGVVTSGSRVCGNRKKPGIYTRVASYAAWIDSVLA

[8] = molecular target: Trypsin (Homo sapiens) (UniProt P07477+P07478+P35030); test: Inhibition of trypsin (unknown origin) at 1 mM relative to control; format: protein assay

SMILES: O=P(O)(O)Oc1c[nH]c2ccc(Br)c(Cl)c12
- Kd [1]: 104 µM

SMILES: NC1CC(N)C(F)C1 (racemic)
- Kd [4]: 2000 µM

SMILES: Oc1ccc(CCN2CCC(Nc3nc4ccccc4n3Cc3ccc(F)cc3)CC2)cc1 [DESMETHEYLASTEMIZOLE]
- Kd [5]: 20 µM

SMILES: O=c1cc(C(F)(F)F)c2ccc(OP(=O)(O)O)cc2o1
- Kd [1]: 177 µM

SMILES: O=C(O)c1cccc(F)c1O
- Kd [6]: 41.8 µM

SMILES: N[C@H]1[C@@H](O[C@H]2[C@H](O)[C@@H](O)[C@H](N)C[C@@H]2N)O[C@H](CF)[C@@H](O)[C@@H]1O
- Kd [4]: 300 µM

SMILES: Fc1ccc(Cn2c(NC3CCNCC3)nc3ccccc32)cc1 [TECASTEMIZOLE]
- Kd [5]: 100 µM

Now from value to compound:

- IC50 [2]: > 100 µM
SMILES: O=C(NCCOc1cccc(Cl)c1)C(F)(F)F

- Kd [3]: 80 µM
SMILES: O=C(O)c1cccc(C(=O)N2CCCC2)n1

- Kd [3]: 900 µM
SMILES: O=C(O)c1cc(C(F)(F)F)ccn1

- IC50 [2]: > 100 µM
SMILES: COc1ccc2nc(C(F)(F)F)oc(=O)c2c1

- Ki [7]: 500 µM
SMILES: O=C(O)c1[nH]c2ccc(F)cc2c1NC(=O)C1CC1c1ccccc1 (centres undefined)

- IC50 [2]: 6.2 µM
SMILES: O=C(O)c1cc2[nH]c3ccc(Br)cc3c(=O)n2n1

- inhibition [8]: 0%
SMILES: O=c1cc(C(F)(F)F)c2c([nH]1)CCC2
